Patent US5002933A, “Hexapeptide and medicinal preparation produced from it to treat erosive and ulcerative lesions of gastrointestinal tract” (priority 1987, dated 1991)
Square brackets hold non-standard residues; d marks the D form. Ends that are not written are not given here.

Assays:
[1] = system: cysteamine-induced duodenal ulcer; assay: cysteamine-induced duodenal ulcer, oral administration; type: in vivo, rats; settings: for Lesion scoring: given immediately and 6 h after cysteamine, score 0-4, 24 h; for Incidence: ratio of animals with ulcer to survivals; for Ulcer index: severity of lesion + doubled incidence; for Ulcer index reduction, %: versus control group
Method: The efficacy of the proposed hexapeptide has been studied on experimental animals. Vister male rats were used to compare the therapeutic efficacy of the proposed preparation with that of the known preparations.
Duodenal ulcer was induced in experimental animals by subcutaneous administration of cysteamine hydrochloride in a dose of 350 mg per kg body weight (in 0.5 ml of physiological saline). The proposed preparation was given to the rats immediately and in 6 hours following the administration of the provoking agent. The proposed hexapeptide was given into the stomach through a gastric tube in doses of 10 and 100 mcg/kg; the known hexapeptide (U.S. Pat. No. 4,565,705) was given in a dose of 100 mcg/kg (cimetidine in a dose 10 mg/kg) in 0.5 ml of a 3 percent milk (five-fold diluted in physiological saline). Control animals were given 0.5 ml of a 3 percent milk diluted in a 5-fold volume of physiological saline immediately after administration of cysteamine hydrochloride and 6 hours later. The animals were sacrificed by decapitation in 24 hours after administration of cysteamine hydrochloride and the condition of the duodenal mucosa was assessed in them.
The severity of lesion was determined for each group of the rats using the following scoring system: 0--absense of ulceration; 1--erosion; 2--single ulcer; 3--multiple ulcers; 4--perforating ulcer. Besides, the incidence of lesion was determined in each group: the ratio of the animals with ulcer to the total number of survivals by the end of the experiment was determined. A conventional ulcer index (severity of lesion+doubled incidence of affections) was thus derived as the summary involvement index.
The obtained findings were treated statistically using the Student t-criterion (for severity of lesion) and Pirson X^2 criterion (for the incidence). The differences at the level of 95 percent significance were taken as trustworthy (P<0.05).

[2] = system: indomethacin-induced ulcers of the small intestine; assay: indomethacin-induced ulcers of the small intestine; type: in vivo, rats; settings: for Average number of ulcers: 30-cm distal small intestine, 24 h after indomethacin 20 mg/kg
Method: The proposed hexapeptide was also studied in experiments with indomethacin-induced ulcers of the small intestine. The efficacy of the proposed hexapeptide was compared with that of sulfasalazine. Indomethacin was given to the rats into the stomach through a tube in a dose of 20 mg/kg, in the form of a suspension in 0.5 ml of physiological saline. The proposed hexapeptide or sulfasalazine were given in doses of 100 μg/kg or 200 mg/kg respectively immediately after administration of indomethacin or 6 hours later. Indomethacin was given with 0.5 ml of a 3% milk diluted in 5 volumes of physiological saline. The same amount of the milk solution was given to the control animals. The rats were decapitated in 24 hours after the administration of indomethacin and the number of ulcers on the mucosa of a 30-cm long distal small intestine was counted. […] The average number of ulcers was determined for each group of the animals.
The findings were processed statistically using the Student t-criterion. Differences at the significance level of 95 % were taken as trustworthy (at P<0.05).

[3] = solubility of the hexapeptide powder; type: physicochemical
acute toxicity tests = type: in vivo
[4] = blood cell composition and haemodynamic indices in the experiments; type: in vivo; settings: in the experiments with the proposed hexapeptide

CN/C(=N/CCSCc1nc[nH]c1C)NC#N [cimetidine, reference compound]
Lesion scoring ([1]; 10 mg/kg per os): 1.00 | Incidence ([1]; 10 mg/kg per os): 0.33 | Ulcer index ([1]; 10 mg/kg per os): 1.66 | Ulcer index reduction, % ([1]; 10 mg/kg per os): 57%

O=C(O)c1cc(/N=N/c2ccc(S(=O)(=O)Nc3ccccn3)cc2)ccc1O [sulfasalazine, reference compound]
decrease of the number of ulcers in the intestine ([2]; 200 mg/kg, versus control): 46% | Average number of ulcers ([2]; sulfasalazine 200 mg/kg): 27.50 ± 5.28

Y[dA]GFLE [proposed hexapeptide]
solubility ([3]; distilled water, physiological saline, alcohol): readily soluble | solubility ([3]; ether, ethyl actate, benzene, or hexane): insoluble | LD50 (acute toxicity tests): 250 mg/kg | changes in the cell composition of the blood [4]: No changes | changes in the main haemodynamic indices [4]: No changes | Average number of ulcers ([2]; 100 μg/kg): 23.40 ± 5.36 | decrease of the average number of ulcers in the distal small intestine ([2]; 100 μg/kg, versus control): 52% | anti-ulcer activity relative to sulfasalazine ([2]; dose comparison, 100 μg/kg versus sulfasalazine 200 mg/kg, small intestine): 2000 times | Lesion scoring ([1]; 10 μg/kg per os): 1.60 | Incidence ([1]; 10 μg/kg per os): 0.80 | Ulcer index ([1]; 10 μg/kg per os): 3.20 | Ulcer index reduction, % ([1]; 10 μg/kg per os): 18% | Lesion scoring ([1]; 100 μg/kg per os): 0.83 | Incidence ([1]; 100 μg/kg per os): 0.31 | Ulcer index ([1]; 100 μg/kg per os): 1.45 | Ulcer index reduction, % ([1]; 100 μg/kg per os): 63% | anti-ulcer activity relative to cimetidine ([1]; dose comparison, 100 μg/kg versus cimetidine 10 mg/kg, duodenum): 100 times
